# Source: patent publication US20190083436A1, “METHODS OF DIAGNOSING CANCER” (AGENCY FOR SCIENCE, TECHNOLOGY AND RESEARCH, priority 2016, published 2019)
# Assays:
# HCC cell lines = assay: Real-time cell proliferation (xCELLigence) of liver cancer cell lines treated with compounds; format: cell-based
# Experimental: Cell Culture. Cell lines were obtained [Huh7 from Japanese Collection of Research Bioresources; Hep3B, SNU182, SNU387, SNU398, and SNU449 from ATCC; and Morris Hepatoma 3924a from German Cancer Research Center Tumor Collection] and not further verified. Only cell stocks that had been verified mycoplasma-negative within the prior 9 months were used. All cell lines were maintained in RPMI 1640 with 10% FBS and 1% Pen Strep (Gibco) and grown in a 37° C. humidified incubator with 5% CO2. Real-time cell growth measurements were taken on an xCELLigence RTCA SP (Acea) at 15-minute intervals. For compound treatment growth curves, cells were seeded in quadruplicate at 1,250, 2,500 or 5,000 cells per well and normalized 12 hours later (time 0 hours), immediately prior to changing half of the media to add compounds or vehicle. […] For immunoblots, cells were seeded in 10 cm dishes and allowed to grow for at least 24 hours. At approximately 80% confluence the media was changed to include indicated amounts of compound or vehicle (DMSO) and whole cell lysates were harvested 2 hours later. […] Results shown are one of at least three independent experiments.
# mTOR = assay: Immunofluorescence of mTOR/LAMP2 co-localization in Hep3B cells; format: cell-based; conditions: treated 2 hours
# Source text: Arrows highlight the co-localization of mTOR and lysosomal marker LAMP2. […] Student's t-test, *P<0.05, compared to respective controls.
# mTOR pathway = assay: Immunoblots of mTOR pathway activity after 2 hours of compound treatment; format: cell-based; conditions: HCC cell lines, 2 hours of treatment
# Experimental: All cell lines were maintained in RPMI 1640 with 10% FBS and 1% Pen Strep (Gibco) and grown in a 37° C. humidified incubator with 5% CO2. […] For immunoblots, cells were seeded in 10 cm dishes and allowed to grow for at least 24 hours. At approximately 80% confluence the media was changed to include indicated amounts of compound or vehicle (DMSO) and whole cell lysates were harvested 2 hours later. […] For immunoblots, cells were seeded in 10 or 15 cm dishes, and were split or received media change every 3-4 days to maintain a doxycycline concentration of 250 μg/mL. After 10 days, cells were harvested as whole cell lysates, or as purified mitochondrial fractions using an isolation kit (Thermo Fisher). Results shown are one of at least three independent experiments. […] For immunoblots, cells were seeded into 10 cm or 15 cm dishes and harvested 5 days later as whole cell lysates or purified mitochondrial fractions, when the cells were approximately 80% confluent.
# Antibodies were obtained from Cell Signaling [Cleaved Caspase 3 (9664), Cox IV (4844), p-Histone H2A.X (9718), S6 (2317), p-S6 (4858), S6K (9202), p-S6K (9234)], Santa Cruz [Bckdha (sc-67200), Bckdhb (sc160974), Gapdh (sc-32233)], Bethyl [p-Bckdha (A304-672A)], Sigma [Tubulin (T5168), Acads (HPA022271)], and Abcam [Acadsb (ab99951), Bckdk (ab125389 and ab151297), Ki67 (ab15580)]. […]
# DEN-induced liver tumors = assay: DEN-injected mice fed BCAA-supplemented diets with Fenofibrate or BT2; format: in vivo; conditions: 8 months after DEN injection; LFD+BCAA or HFD+BCAA with 0.05% Fenofibrate or 0.02% BT2
# Source text: Analysis of mice 8 months after DEN injection, fed either a low fat diet (LFD, 10% kcal from fat) or high fat diet (HFD, 45% kcal from fat) with normal or high (+150%) levels of BCAAs. […] Hazard ratios (with 95% confidence intervals) based on BCAA intake, adjusted for age, sex, race, total kcal, usual dietary intake, diet change, physical activity, intentional weight loss, waist circumference, smoking, education, and prior diagnosis of cancer, diabetes and cardiovascular disease, additionally adjusted for % kcal from other macronutrients. […] Substitution analysis comparing change in risk when replacing BCAAs with carbohydrate or fat, with the same adjustments as HR2 except total kcal and % kcal from nonBCAA protein. Data are presented as hazard ratio (solid line) with 95% confidence interval (shaded area). […] Student's t-test, *P<0.05 vs. LFD, § P<0.05 vs HFD. †P<0.05 vs LFD+BCAA. ‡P<0.05 vs HFD+BCAA. […]
# All animal studies were approved by the Institutional Animal Care and Use Committee at A*STAR. […] For rat DEN model, DEN was given to 10 week-old rats via drinking water containing 100 mg/L DEN for up to 4 months, and control rat livers from age-matched rats were analyzed. […] Livers were resected, measured by electronic calipers and snap frozen in liquid nitrogen. […] Body weights were measured weekly and prior to sacrifice lean and fat mass were measured by an EchoMRI Body Composition Analyzer. […]
Structure (SMILES),"cell proliferation (real-time proliferation curves, divisions per day) (HCC cell lines; panel of HCC cell lines, rates over 48-hour period)",mTOR subcellular localization (co-localization of mTOR and lysosomal marker LAMP2) (mTOR),mTOR activity (immunoblots) (mTOR pathway),"tumor promoting effects of BCAA-supplemented diets (number of tumors ≥3 mm, size of largest tumor) (DEN-induced liver tumors)","sensitivity of HCC cell lines to mTOR inhibitors (HCC cell lines; all HCC cell lines examined, proliferation and mTOR pathway immunoblots)"
"O=C(O)c1sc2cc(Cl)ccc2c1Cl [BT2, 3,6-dichlorobenzo[b]thiophene-2-carboxylic acid]",potent dose-dependent decrease in cell proliferation,no significant co-localization was observed,broad loss of mTOR activity,able to reverse the tumor promoting effects,–
"CC(C)OC(=O)C(C)(C)Oc1ccc(C(=O)c2ccc(Cl)cc2)cc1 [Fenofibrate, propan-2-yl 2-[4-(4-chlorobenzoyl)phenoxy]-2-methylpropanoate]",–,no significant co-localization was observed,–,able to reverse the tumor promoting effects,–
CCC(=O)N1CCN(c2ccc(-n3c(=O)ccc4cnc5ccc(-c6cnc7ccccc7c6)cc5c43)cc2C(F)(F)F)CC1 [Torin 1],–,–,–,–,at least partially sensitive
